Earlier results on five compounds are cited in PubChem BioAssay AID1259410 (Chemical Carcinogenesis Research Information System (CCRIS), 2018).

Molecules are shown by their SMILES.

The data set concerns rodent tumor promotion studies, tumor incidence. The data set can be described thus: CCRIS tumor promotion studies.

As for `CCOC(=O)C(C)(C)Oc1ccc(Cl)cc1`, the outcome is on record as “liver: hepatocellular adenoma” (Carcinogen: DIETHYLNITROSAMINE [55-18-5], Doses [Carcinogen]: 200 MG/KG BW ONCE (STUDY DURATION: 24 WK), Doses [Promoter]: 0, 3000 PPM IN DIET FOR 22 WK BEGINNING 2 WK POST CARCINOGEN DOSE AND 1 WK PRIOR TO 2/3 PARTIAL HEPATECTOMY (STUDY DURAT, Route [Carcinogen]: INTRAPERITONEAL, Route [Promoter]: ORAL, Species: RAT, Strain/Sex: F344/MALE); “liver: hepatocellular adenoma” (Carcinogen: DIETHYLNITROSAMINE [55-18-5], Doses [Carcinogen]: 200 MG/KG BW ONCE (STUDY DURATION: 48 WK), Doses [Promoter]: 0, 3000 PPM IN DIET FOR 46 WK BEGINNING 2 WK POST CARCINOGEN DOSE AND 1 WK PRIOR TO 2/3 PARTIAL HEPATECTOMY (STUDY DURAT, Route [Carcinogen]: INTRAPERITONEAL, Route [Promoter]: ORAL, Species: RAT, Strain/Sex: F344/MALE); “liver: hepatocellular adenoma” (Carcinogen: DIETHYLNITROSAMINE [55-18-5], Doses [Carcinogen]: 200 MG/KG BW ONCE (STUDY DURATION: 52 WK), Doses [Promoter]: 0, 3000 PPM IN DIET FOR 46 WK BEGINNING 2 WK POST CARCINOGEN DOSE AND 1 WK PRIOR TO 2/3 PARTIAL HEPATECTOMY (STUDY DURAT, Route [Carcinogen]: INTRAPERITONEAL, Route [Promoter]: ORAL, Species: RAT, Strain/Sex: F344/MALE); “liver: hepatocellular carcinoma” (Carcinogen: DIETHYLNITROSAMINE, 55-18-5, Doses [Carcinogen]: 10 MG/KG IN SALINE ONCE 24 HR AFTER RECEIVING 70% PARTIAL HEPATECTOMIES, Doses [Promoter]: 0, 0.01% IN DIET FOR DURATION OF STUDY BEGINNING 2 WK POST CARCINOGEN DOSE (STUDY DURATION: 18 MO), Route [Carcinogen]: GAVAGE, Route [Promoter]: ORAL, Species: RAT, Strain/Sex: SPRAGUE-DAWLEY/FEMALE); “liver: hepatocellular carcinoma” (Carcinogen: DIETHYLNITROSAMINE, 55-18-5, Doses [Carcinogen]: 100 PPM IN DRINKING WATER FOR 2 WK, Doses [Promoter]: 0, 0.5% IN DIET BEGINNING 1 WK POST LAST CARCINOGEN DOSE AND CONTINUING FOR DURATION OF STUDY (STUDY DURATION: 32 WK), Route [Carcinogen]: ORAL, Route [Promoter]: ORAL, Species: RAT, Strain/Sex: WISTAR/MALE); “liver: adenoma” (Carcinogen: DIETHYLNITROSAMINE, 55-18-5, Doses [Carcinogen]: 150 MG/KG BW ONCE, Doses [Promoter]: 0, 0.1% IN DIET FOR 37 WK BEGINNING 2 WK POST CARCINOGEN TREATMENT (STUDY DURATION: 39 WK), Route [Carcinogen]: INTRAPERITONEAL, Route [Promoter]: ORAL, Species: RAT, Strain/Sex: F344/MALE).
In the case of `CCCCCCCCCC1(CCCCCC(=O)OC2C(C)C3(O)C(C=C(CO)CC4(O)C(=O)C(C)=CC43)C3C(C)(C)C23OC(C)=O)OCC(C)(C)N1[O]` (stereo not given), the outcome (Carcinogen: 7,12-DIMETHYLBENZ[A]ANTHRACENE, 57-97-6, Doses [Carcinogen]: 100 NMOL ONCE, Doses [Promoter]: 0, 5 NMOL 2/WK FOR 24 WK BEGINNING 1 WK POST CARCINOGEN DOSE (STUDY DURATION: 25 WK), Route [Carcinogen]: DERMAL, Route [Promoter]: DERMAL, Species: MOUSE, Strain/Sex: NMRI/FEMALE) is listed as “skin: tumor”.
For the compound `C=C1C[C@@H]2[C@H](CC[C@]3(C)C(=O)CC[C@@H]23)[C@@]2(C)C=CC(=O)C=C12`, the outcome (Carcinogen: N-Methyl-N-nitrosourea, 684-93-5, Doses [Carcinogen]: 50 mg/kg bw, intraperitoneal, twice on days 43 and 49 of age, Doses [Promoter]: 0, 0.0001, 0.001% in diet from 7 d before carcinogen administration for 12 wks (Study duration 12 wks), Route [Carcinogen]: intraperitoneal, Route [Promoter]: Oral, Species: Rat, Strain/Sex: Sprague-Dawley/Female (19-20/Group)) is “mammary gland: various (statistically significant increase in tumor frequency, b”.
With `Oc1ccc(/C=C/c2cc(O)cc(O)c2)cc1`, where the note is “Carcinogen: N-METHYL-N-NITROSOUREA, 684-93-5, Doses [Carcinogen]: 50 MG/KG ONCE AT 7 WK OF AGE, Doses [Promoter]: 100 MG/KG DAILY FOR 5 D AT 2 WK OF AGE (STUDY DURATION: 37 WK), Route [Carcinogen]: INTRAPERITONEAL, Route [Promoter]: SUBCUTANEOUS, Species: RAT, Strain/Sex: SPRAGUE-DAWLEY/FEMALE”, the outcome is recorded as “mammary gland: adenocarcinoma”.
For the compound `CC1(C)OC(=O)N(c2cc(Cl)cc(Cl)c2)C1=O`, where the note is “Carcinogen: 2-(ACETYLAMINO)FLUORINE, Doses [Carcinogen]: DIET, Doses [Promoter]: IN DIET, Route [Carcinogen]: ORAL, Route [Promoter]: ORAL, Species: RAT, Strain/Sex: MALE”, the outcome is given as “liver”.
